System: Plasmodium berghei
Test: Luciferase/luciferin-expressing antifolate-resistant parasites were used to infect a culture of HepG2 cells that were pre-incubated with compounds. Infected hepatocytes emit light due to the luciferase reaction. Assay results are presented as the percent inhibition of light emission compared to control. […]
Type: functional
Settings: sporozoite; for IC90: read-out: LUCIFERASE INFECTION ASSAY - IC90

Compound | IC90 | other results
COc1ccc(-c2cc(NC=O)c3ncc(-c4ccc(OC)c(OC)c4)n3c2)c(OC)c1 | 32.6 nM | IC50 (HEPG2TOX_HILL_SLOPE 0.668, HEPG2TOX_R_SQUARED 0.811, PBLUC_HILL_SLOPE 48.6, PBLUC_R_SQUARED 0.635, read-out: LUCIFERASE INFECTION ASSAY - IC50): 31.2 nM
Cc1cc(C)n(-c2ccc3c(Cl)cc(Cl)c(O)c3n2)n1 | 393 nM | IC50 (HEPG2TOX_HILL_SLOPE 0.646, HEPG2TOX_R_SQUARED 0.957, PBLUC_HILL_SLOPE 194, PBLUC_R_SQUARED 0.635, read-out: LUCIFERASE INFECTION ASSAY - IC50): 388 nM
Oc1cccc(-c2cnc3cnc(-c4ccc(Cl)cc4)cn23)c1 | > 10300 nM | IC50 (HEPG2TOX_HILL_SLOPE 0.659, HEPG2TOX_R_SQUARED 0.949, PBLUC_HILL_SLOPE 0.784, PBLUC_R_SQUARED 0.857, read-out: LUCIFERASE INFECTION ASSAY - IC50): 1550 nM
CN(CC(=O)Nc1ccc(Cl)c(S(=O)(=O)N2CCOCC2)c1)C(=O)/C=C/c1cccs1 | > 10000 nM | IC50 (HEPG2TOX_HILL_SLOPE 0.594, HEPG2TOX_R_SQUARED 0.62, read-out: LUCIFERASE INFECTION ASSAY - IC50): > 10000 nM
COc1ccc(-c2cc(CN3C(=O)N(C)C4(CCCCC4)C3=O)on2)cc1 | > 10000 nM | IC50 (HEPG2TOX_HILL_SLOPE 0.667, HEPG2TOX_R_SQUARED 0.327, read-out: LUCIFERASE INFECTION ASSAY - IC50): > 10000 nM
OC(CSc1nnc(CNc2cccc(C(F)(F)F)c2)n1C1CCCCC1)c1ccccc1 (centres undefined) | > 10000 nM | IC50 (HEPG2TOX_HILL_SLOPE 0.64, HEPG2TOX_R_SQUARED 0.795, PBLUC_HILL_SLOPE 0.508, PBLUC_R_SQUARED 0.492, read-out: LUCIFERASE INFECTION ASSAY - IC50): 1130 nM
COc1ccc(-c2ccc3ncc(-c4ccc(NC(C)=O)cc4)n3n2)cc1OC | 53 nM | IC50 (HEPG2TOX_HILL_SLOPE 0.646, HEPG2TOX_R_SQUARED 0.97, PBLUC_HILL_SLOPE 3.16, PBLUC_R_SQUARED 0.759, read-out: LUCIFERASE INFECTION ASSAY - IC50): 26.4 nM
Nc1ncnc(N/N=C/c2c(O)ccc3ccccc23)c1[N+](=O)[O-] | > 10000 nM | IC50 (HEPG2TOX_HILL_SLOPE 0.612, HEPG2TOX_R_SQUARED 0.82, read-out: LUCIFERASE INFECTION ASSAY - IC50): > 10000 nM
O=C(Cn1cnc2sccc2c1=O)c1ccc(C2CCCCC2)cc1 | > 10000 nM | IC50 (HEPG2TOX_HILL_SLOPE 0.627, HEPG2TOX_R_SQUARED 0.608, PBLUC_HILL_SLOPE 1.31, PBLUC_R_SQUARED 0.795, read-out: LUCIFERASE INFECTION ASSAY - IC50): 2580 nM
CCOc1cccc(-c2cn3c(-c4ccc5c(ccn5C)c4)cnc3cn2)c1 | 63.7 nM | IC50 (HEPG2TOX_HILL_SLOPE 0.658, HEPG2TOX_R_SQUARED 0.817, PBLUC_HILL_SLOPE 2.41, PBLUC_R_SQUARED 0.611, read-out: LUCIFERASE INFECTION ASSAY - IC50): 25.6 nM
O=C1CCCN1c1ccc(CNc2ccccc2S(=O)(=O)C(F)(F)F)cc1 | > 10000 nM | IC50 (HEPG2TOX_HILL_SLOPE 0.628, HEPG2TOX_R_SQUARED 0.884, read-out: LUCIFERASE INFECTION ASSAY - IC50): > 10000 nM
Fc1ccc(-c2csc3ncnc(NCc4ccc(CN5CCOCC5)cc4)c23)cc1 | 7440 nM | IC50 (HEPG2TOX_HILL_SLOPE 0.615, HEPG2TOX_R_SQUARED 0.878, PBLUC_HILL_SLOPE 1.43, PBLUC_R_SQUARED 0.575, read-out: LUCIFERASE INFECTION ASSAY - IC50): 1590 nM
COc1ccc(-c2cnc3cnc(-c4ccccc4N(C)C)cn23)cc1 | 409 nM | IC50 (HEPG2TOX_HILL_SLOPE 0.622, HEPG2TOX_R_SQUARED 0.863, PBLUC_HILL_SLOPE 8.14, PBLUC_R_SQUARED 0.832, read-out: LUCIFERASE INFECTION ASSAY - IC50): 312 nM
O=[N+]([O-])c1ccccc1/C=N/n1c(-c2ccc(Cl)cc2)cs/c1=N\CC1CCCO1 (centres undefined) | 7090 nM | IC50 (HEPG2TOX_HILL_SLOPE 0.61, HEPG2TOX_R_SQUARED 0.914, PBLUC_HILL_SLOPE 1.45, PBLUC_R_SQUARED 0.571, read-out: LUCIFERASE INFECTION ASSAY - IC50): 1550 nM
C=CCn1c(SCc2c(C)noc2C)nc2scc(C3CC3)c2c1=O | 51.9 nM | IC50 (HEPG2TOX_HILL_SLOPE 0.626, HEPG2TOX_R_SQUARED 0.778, PBLUC_HILL_SLOPE 13, PBLUC_R_SQUARED 0.397, read-out: LUCIFERASE INFECTION ASSAY - IC50): 43.9 nM
Cc1cc(C(=O)CSc2nc3ccccc3[nH]2)c(C)n1-c1ccc(F)cc1 | 513 nM | IC50 (HEPG2TOX_HILL_SLOPE 0.596, HEPG2TOX_R_SQUARED 0.924, PBLUC_HILL_SLOPE 3.63, PBLUC_R_SQUARED 0.908, read-out: LUCIFERASE INFECTION ASSAY - IC50): 280 nM

Compound | IC90 | other results
Cc1ccccc1-c1cn2c(-c3ccc(CO)cc3)cnc2cn1 | 10400 nM | IC50 (HEPG2TOX_HILL_SLOPE 0.675, HEPG2TOX_R_SQUARED 0.753, PBLUC_HILL_SLOPE 1.37, PBLUC_R_SQUARED 0.689, read-out: LUCIFERASE INFECTION ASSAY - IC50): 2100 nM
COc1cc(/C=N/NC(=O)c2cc(C)n(-c3ccccc3)c2C)ccc1OCC(=O)Nc1c(C)cc(C)cc1C | 8350 nM | IC50 (HEPG2TOX_HILL_SLOPE 0.635, HEPG2TOX_R_SQUARED 0.731, PBLUC_HILL_SLOPE 5.43, PBLUC_R_SQUARED 0.0161, read-out: LUCIFERASE INFECTION ASSAY - IC50): 5570 nM
Cc1cc(C(=O)/C(C#N)=N/Nc2ccc(Cl)cc2)n(C(C)(C)C)n1 | 7210 nM | IC50 (HEPG2TOX_HILL_SLOPE 0.671, HEPG2TOX_R_SQUARED 0.767, PBLUC_HILL_SLOPE 2.12, PBLUC_R_SQUARED 0.724, read-out: LUCIFERASE INFECTION ASSAY - IC50): 2560 nM
CSc1ccc(C=C2C(=O)OC(C)(C)OC2=O)s1 | > 11600 nM | IC50 (HEPG2TOX_HILL_SLOPE 0.602, HEPG2TOX_R_SQUARED 0.801, PBLUC_HILL_SLOPE 0.853, PBLUC_R_SQUARED 0.0835, read-out: LUCIFERASE INFECTION ASSAY - IC50): > 11600 nM
Fc1cccc(-c2cnc3sc(NCCc4ccncc4)nn23)c1 | > 9720 nM | IC50 (HEPG2TOX_HILL_SLOPE 0.66, HEPG2TOX_R_SQUARED 0.128, read-out: LUCIFERASE INFECTION ASSAY - IC50): > 9720 nM
Cc1cc(Cl)n2ncc(-c3ccc(F)cc3)c2n1 | 12300 nM | IC50 (HEPG2TOX_HILL_SLOPE 0.63, HEPG2TOX_R_SQUARED 0.416, PBLUC_HILL_SLOPE 2.81, PBLUC_R_SQUARED 0.71, read-out: LUCIFERASE INFECTION ASSAY - IC50): 5620 nM
CNS(=O)(=O)c1cccc(C(=O)Nc2ccc(Cl)c(C(F)(F)F)c2)c1 | > 10000 nM | IC50 (HEPG2TOX_HILL_SLOPE 0.613, HEPG2TOX_R_SQUARED 0.555, PBLUC_HILL_SLOPE 3.22, PBLUC_R_SQUARED 0.568, read-out: LUCIFERASE INFECTION ASSAY - IC50): 7210 nM
COc1ccc(CNc2ncnc3scc(-c4ccccc4)c23)cc1OC | 9560 nM | IC50 (HEPG2TOX_HILL_SLOPE 0.633, HEPG2TOX_R_SQUARED 0.925, PBLUC_HILL_SLOPE 1.59, PBLUC_R_SQUARED 0.666, read-out: LUCIFERASE INFECTION ASSAY - IC50): 2400 nM
Cc1ccccc1C(Sc1nnc(-c2ccc[nH]2)o1)c1ccccc1 (centres undefined) | > 10000 nM | IC50 (HEPG2TOX_HILL_SLOPE 0.627, HEPG2TOX_R_SQUARED 0.488, read-out: LUCIFERASE INFECTION ASSAY - IC50): > 10000 nM
Cn1ccc2cc(-c3cnc4cnc(-c5ccccc5Cl)cn34)ccc21 | 43 nM | IC50 (HEPG2TOX_HILL_SLOPE 0.673, HEPG2TOX_R_SQUARED 0.619, PBLUC_HILL_SLOPE 2.33, PBLUC_R_SQUARED 0.732, read-out: LUCIFERASE INFECTION ASSAY - IC50): 16.8 nM
CNc1snc(C)c1C(=O)NC(C)c1ccc(C(C)C)cc1 (centres undefined) | 2910 nM | IC50 (HEPG2TOX_HILL_SLOPE 0.648, HEPG2TOX_R_SQUARED 0.871, PBLUC_HILL_SLOPE 1.92, PBLUC_R_SQUARED 0.818, read-out: LUCIFERASE INFECTION ASSAY - IC50): 930 nM
O=C(CSc1nnc(-c2ccccc2)o1)Nc1ncc(Cl)cc1Cl | 1200 nM | IC50 (HEPG2TOX_HILL_SLOPE 0.667, HEPG2TOX_R_SQUARED 0.783, PBLUC_HILL_SLOPE 16.1, PBLUC_R_SQUARED 0.672, read-out: LUCIFERASE INFECTION ASSAY - IC50): 1050 nM
CC(C)NS(=O)(=O)c1cccc(CNc2ncnc3ccccc23)c1 | 2340 nM | IC50 (HEPG2TOX_HILL_SLOPE 0.638, HEPG2TOX_R_SQUARED 0.943, PBLUC_HILL_SLOPE 2.45, PBLUC_R_SQUARED 0.694, read-out: LUCIFERASE INFECTION ASSAY - IC50): 954 nM
CC(=O)Nc1ccc(-c2ccc3ncc(-c4ccc(CO)cc4)n3n2)cc1 | > 10000 nM | IC50 (HEPG2TOX_HILL_SLOPE 0.612, HEPG2TOX_R_SQUARED 0.859, PBLUC_HILL_SLOPE 1.16, PBLUC_R_SQUARED 0.655, read-out: LUCIFERASE INFECTION ASSAY - IC50): 1900 nM
Cc1ccc(-n2ncc(C(=O)Nc3ccncc3)c2C2CC2)cc1Cl | 7690 nM | IC50 (HEPG2TOX_HILL_SLOPE 0.617, HEPG2TOX_R_SQUARED 0.925, PBLUC_HILL_SLOPE 1.2, PBLUC_R_SQUARED 0.513, read-out: LUCIFERASE INFECTION ASSAY - IC50): 1230 nM
CCOc1cccc(C2Nc3ccccc3C(=O)N2C2CC2)c1O (centres undefined) | 9550 nM | IC50 (HEPG2TOX_HILL_SLOPE 0.644, HEPG2TOX_R_SQUARED 0.857, PBLUC_HILL_SLOPE 2.2, PBLUC_R_SQUARED 0.323, read-out: LUCIFERASE INFECTION ASSAY - IC50): 3510 nM

Reference: ChEMBL document CHEMBL4483862, “Open-source discovery of chemical leads for next-generation chemoprotective antimalarials” (2018)
